The test system of data set [1] is myelin oligodendrocyte glycoprotein (MOG)-induced experimental autoimmune encephalomyelitis (EAE). As to the kind of experiment: Variable dose mouse model of MOG-induced experimental autoimmune encephalomyelitis (EAE). In kind it is in vivo. The following applies: vehicle BID 18 days, Log-rank p=0.039. Here is the method: 60 female C57BL/6 mice were housed for an acclimation period of 1 week. 53 mice were enrolled in the study after randomization with a body weight between 18.3-22.3 g with an average body weight of 19.7 g per group on Study day minus 1.
For induction of MOG-EAE, MOG35-55 peptide was administered in phosphate buffered saline (PBS) and complete Freund's adjuvant (CFA). MOG35-55 peptide in PBS was emulsified in a 1:1 (v:v) mixture with CFA via homogenization in an Omni BeadRuptor Elite using 7 mL tubes pre-filled with 2.8 mm ceramic beads. Briefly, MOG35-55 peptide was brought up to 1 mg/mL in cold PBS, and 1.75 mL aliquoted into each homogenization tube. An equal volume (1.75 mL) CFA was then added for a total volume of 3.5 mL, on ice. Two rounds of homogenization were performed using a speed of 3.5 m/s; 3 cycles of 45 seconds with 30 seconds dwell at 4° C., followed by a third round with 2 cycles of 45 seconds and 30 seconds dwell at 4° C. In between each round, samples were placed on ice for ˜15 minutes. Tubes were spun down at 300 g for 1 minute at 4° C. Mice were anesthetized under isoflurane anesthesia. 100 μL (50 μg MOG35-55) was then injected subcutaneously into the flank of each leg (for a total of two injections and 100 μg MOG35-55). On Study Day 0 and Day 2, pertussis toxin was formulated at a concentration of […] in PBS, and 100 μL (200 ng) injected into each animal by intraperitoneal injection.
Treatment was performed BID starting on Day 1 for groups 2, 3, and 4, and once daily (QD) starting on day 1 for group 5. All experimental groups were n=12. The administration interval was 12 hours and the administration volume was 5 mL/kg.
The Body condition score of all animals was monitored on study Days 0, 7, 10 and then every other day. […]
Disease severity was scored on Day 0, 7 and every 2 days beginning on Day 10 onward for all groups. […]
Disease incidence rate was calculated as percentage of total animals per group starting from day 0 until termination on study day 28. […]

For data set [2] the test system is unchanged. As to the kind of experiment: Mouse model of MOG-induced experimental autoimmune encephalomyelitis (EAE), prophylactic and therapeutic dosing. In kind it is in vivo. The following applies: 75 mg/kg P.O. BID Days 8-25 (therapeutic). Here is the method:
Adult female C57BL/6J mice were randomly allocated to experimental groups and allowed to acclimatize for one week prior to commencing the study. On Day 0 and Day 7, animals were administered an emulsion (200 μL/mouse) of MOG35-55 and complete Freund's adjuvant (CFA). […]. On Day 0 (immediately post-MOG injection) and Day 2, animals were administered with pertussis toxin (PTx, 500 ng/mouse) prepared in phosphate buffered saline (PBS, 100 μL/mouse) by intra-peritoneal injection.
Treatment was performed twice daily (BID) prophylactically starting on Day 1 for groups 1, 2, and 4, and therapeutically starting on day 8 for group 3. All experimental groups were n=12. The administration interval was 12 hours and the administration volume was 5 mL/kg.
Because body weight loss is known to be an important hallmark of EAE occurring in correspondence of the appearance of the first symptoms, animals were weighed daily from the day of immunization (Day 0) until the end of the experiment. The changes in body weight observed over the course of the experiment for the different experimental groups, presented as mean±SEM, are summarized in FIG. 7. […]
From Day 0 until the end of the experiment, animals were scored daily for clinical signs of EAE to include paresis and paralysis affecting the tail and the limbs. […]

Data set [3] can be described thus: Accelerated stability tests of polymorph Form II (HPLC purity and potency). The class given is physicochemical. Here is the method: High-performance liquid chromatography (HPLC) was performed using the following instrument and/or conditions.

Structures are written as SMILES.

On to `COc1ccc(-c2nc([C@@H](C)Sc3nc(N)cc(N)n3)c(C)s2)cc1OCCN1CCOCC1` [Compound 1, (R)-2-((1-(2-(4-methoxy-3-(2-morpholinoethoxy)phenyl)-5-methylthiazol-4-yl)ethyl)thio)pyrimidine-4,6-diamine], for which the “median time to disease” value in data set [1] (25 mg/kg BID PO) worked out at 18 days; in data set [1] (75 mg/kg BID PO), 19 days; in data set [1] (100 mg/kg QD PO) it was 20 days. Also, the “animals showing no symptoms at all (complete remission)” value in data set [2] (after Day 20) is approximately 27%. Moreover, the “disease incidence (highest reached)” value in data set [2] (on Day 19, vehicle reached 100% on Day 13) is approximately 92%.
Regarding `COc1ccc(-c2nc([C@@H](C)Sc3nc(N)cc(N)n3)c(C)s2)cc1OCCN1CCOCC1` [polymorph Form II, (R)-2-((1-(2-(4-methoxy-3-(2-morpholinoethoxy)phenyl)-5-methylthiazol-4-yl)ethyl)thio)pyrimidine-4,6-diamine], the “Potency (%)” value came out at 98.7% in data set [3] (25° C./60% RH for 1 week), 98.6% in data set [3] (40° C./75% RH for 1 week), 98.6% in data set [3] (60° C. for 1 week) and 98.6% in data set [3] (API standard (no exposure)). Also, the “Purity (area %)” value in data set [3] (25° C./60% RH for 1 week) was 98.75 area %; in data set [3] (40° C./75% RH for 1 week), 98.66 area %; in data set [3] (60° C. for 1 week) it was 98.75 area %; in data set [3] (API standard (no exposure)), 98.22 area %.

The values above are taken from US11446307B2, “Crystalline forms of a deoxycytidine kinase inhibitor and uses thereof” (Trethera Corporation, priority 2020, dated 2022).
